Measurements from paper PMC9501899 (Journal of the American Chemical Society, 2022).

System: pRab10
Assay: Rab10 dephosphorylation in R1441C LRRK2 MEFs
Type: cell-based
Details: Mus musculus, 4 h, read-out: EC50s (pRab10)
Text: Primary MEFs were generated as described in a previous study.[80] Briefly, the uterine horn was collected from adult female mice at day E12.5 and transferred to a 10 cm tissue culture dish containing cold PBS. Two forceps were used to tear the yolk sacs to isolate each embryo. Forceps were cleaned thoroughly with 70% ethanol between each embryo isolation. The embryos were culled, and a tissue piece was collected in a polymerase chain reaction (PCR) tube for genotyping. The red tissue of the embryo was removed, and the remainder was minced with a scalpel blade and incubated with a 7.5 mL trypsin–ethylenediaminetetraacetic acid (EDTA) solution for 10 min in a 37 °C, 5% CO2 tissue culture incubator. The dish was removed from the incubator and checked under a light microscope for single cells. Complete media (7.5 mL) was added to the trypsinized cells, and the cell suspension was transferred to a 15 mL Falcon tube and centrifuged at 1200 rpm for 5 min at room temperature. […]
Culturing and passaging of adherent cell lines were carried out using an aseptic technique in CL1 or CL2 (for PBMC isolation) biological safety cabinets. […] The cell pellet was discarded, and the supernatant was collected for analysis by quantitative immunoblotting. […] Protein concentrations of cell lysates were determined using the Bradford assay. […]

CNc1nc(Nc2ccc(C(=O)N3CCN(C[C@H]4CC[C@H](CSC(C)(C)[C@H](NC(=O)C5(F)CC5)C(=O)N5C[C@H](O)CC5C(=O)NCc5ccc(-c6scnc6C)cc5)CC4)CC3)cc2OC)ncc1Cl (stereo partly drawn) [XL01126, (2S,4R)-1-((R)-3-((((1R,4R)-4-((4-(4-((5-Chloro-4-(methylamino)pyrimidin-2-yl)amino)-3-methoxybenzoyl)piperazin-1-yl)methyl)cyclohexyl)methyl)thio)-2-(1-fluorocyclopropane-1-carboxamido)-3-methylbutanoyl)-4-hydroxy-N-(4-(4-methylthiazol-5-yl)benzyl)pyrrolidine-2-carboxamide]
EC50: 30 nM

CNc1nc(Nc2ccc(C(=O)N3CCN(C[C@H]4CC[C@H](CSC(C)(C)[C@H](NC(=O)C5(F)CC5)C(=O)N5C[C@@H](O)C[C@H]5C(=O)NCc5ccc(-c6scnc6C)cc5)CC4)CC3)cc2OC)ncc1Cl [cis-XL01126, (2S,4S)-1-((R)-3-((((1R,4R)-4-((4-(4-((5-Chloro-4-(methylamino)pyrimidin-2-yl)amino)-3-methoxybenzoyl)piperazin-1-yl)methyl)cyclohexyl)methyl)thio)-2-(1-fluorocyclopropane-1-carboxamido)-3-methylbutanoyl)-4-hydroxy-N-(4-(4-methylthiazol-5-yl)benzyl)pyrrolidine-2-carboxamide]
EC50: 158 nM
